The structures appear in SMILES notation.

For series [1], the system named is BSEP mRNA in HepG2 cells. In words: Relative expression of BSEP mRNA in HepG2 cells, EC50 (Experimental Example 3). It is filed as cell-based. Particulars: Homo sapiens, 24 hrs. Here is the method:
(§1) compounds of the present invention (for their chemical names and preparation methods, see the preparation example for each compound).
(§2) HepG2 cell: human liver cancer cell;
BSEP: bile salt export pump;
(§3) Control: compound 1-1B with a structure shown as follows, prepared according to a prior art method (for detailed information, see patent application WO2012087519A1).
(§4) Cells were digested with pancreatin and collected, and the concentration of the cells was determined; according to the counting result, the cells were resuspended to a density of 7.5×10^5 cells/mL; 2 mL of the cell suspension was inoculated in each well of a 6-well cell culture plate; and the culture plate was placed in an incubator and cultured under the conditions of 37° C. and 5% CO2 for 24 hrs.
(§5) The compounds were diluted to 3000, 1000, 200, 8, 1.6, 0.32, 0.0128, 0.00256 and 0.000512 μM with DMSO. Compound solutions of different concentrations obtained in the previous step were further diluted by 1,000 times with media to obtain working solutions, and a medium containing 0.1% of DMSO was adopted as a control group. The cell culture plate was taken out from the incubator, the medium was removed, and the working solutions and the control medium were added. The culture plate was placed back into the incubator and cultured under the conditions of 37° C. and 5% CO2 for 24 hrs. […]

For series [2], the system named is SHP mRNA in HepG2 cells. Nature of the series: Relative expression of SHP mRNA in HepG2 cells, EC50 (Experimental Example 3). The class given is cell-based. Particulars: Homo sapiens, 24 hrs. Here is the method:
as §1, §2
SHP: small heterodimer partner;
as §3, §4, §5

The subject of series [3] is CYP7A1 mRNA in HepG2 cells. Nature of the series: Relative expression of CYP7A1 mRNA in HepG2 cells, IC50 (Experimental Example 3). The class given is cell-based. Particulars: Homo sapiens, 24 hrs. Here is the method:
as §1, §2
CYP7A1: cholesterol 7-alpha hydroxylase;
as §3, §4, §5

In series [4] the test system is SHP mRNA in AML12 cells. Nature of the series: Relative expression of SHP mRNA in AML12 cells, EC50 (Experimental Example 4). The class given is cell-based. Conditions: Mus musculus, 24 hrs. On the procedure:
as §1
AML12 cells: mouse liver cells.
as §3
Cells were digested with pancreatin and collected, and the concentration of the cells was determined; according to the counting result, the cells were resuspended to a density of 7.5×10^4 cells/mL; 1 mL of the cell suspension was inoculated in each well of a 12-well cell culture plate; and the culture plate was placed in an incubator and cultured under the conditions of 37° C. and 5% CO2 for 24 hrs.
The compound were diluted to 1000, 200, 8, 1.6, 0.32, 0.128, 0.0256 and 0.00512 μM with DMSO. Compound solutions of different concentrations obtained in the previous step were further diluted by 1000 times with media to obtain working solutions, and a medium containing 0.1% of DMSO was adopted as a control group. The cell culture plate was taken out from the incubator, the medium was removed, and the working solutions and the control medium were added. The culture plate was placed back into the incubator and cultured under the conditions of 37° C. and 5% CO2 for 24 hrs.
after treatment for 24 hrs, the cell culture plate was taken out from the incubator, and the medium was removed from the plate; the cells were rinsed three times with pre-cooled (4° C.) PBS (phosphate buffer solution); and 200 μL of pancreatin (preheated to 37° C.) was added to each well, and the plate was then gently shaken such that the pancreatin could evenly cover the plate bottom. The culture plate was then placed back into the incubator and incubated until the cells were separated from the plate bottom. 1 mL of medium was added to terminate digestion. […]

The nature of series [5]: Liver microsome metabolism stability, human liver microsome. The class given is in vitro ADME. Particulars: 0.5 mg protein/mL, test sample 1 μM, β-NADPH. On the procedure: (§6) Test samples: the homemade compounds 1, 2, 4 and 5 of the present invention (for their chemical names and preparation methods, see the preparation example for each compound).
(§7) a mixed liver microsomes of SD rat and human both purchased from XenoTech, with batch Nos.: 1410271 (SD rat) and 1410013 (human) respectively, wherein the microsomal protein concentrations both were 20 mg mL^−1;
(§8) experimental promoter β-NADPH purchased from Roche (batch No.: 524F0231); and a phosphate buffer solution (pH 7.4) made in the lab.
(§9) An appropriate amount of the test sample powder was weighed accurately, and dissolved in an appropriate amount of dimethyl sulfoxide (DMSO) to a concentration of 1 mM; and the solution was then diluted by 20 times with methanol to yield a 50 μM working solution.
(§10) (1) According to the proportions in table 3 “Composition of the incubation system for liver microsome metabolism stability experiment” above, for each compound, 6 mL of PBS (100 mM), 0.6 mL of MgCl2 solution (20 mM) and 3.66 mL of H2O were made into a mixed solution 1 for the incubation system (not containing the microsomes, the test sample and β-NADPH).
(§11) (2) Liver microsomes (20 mg protein/mL) were taken from a refrigerator (−80° C.), and were placed on a thermostatic water bath oscillator (37° C.) and pre-incubated for 3 mins.
(§12) (3) For each compound, 1.88 mL of the mixed solution 1 for the incubation system was added with 55 μL of microsomes to obtain a mixed solution 2 for the incubation system (not containing the test sample and β-NADPH).
(§13) (4) Sample group (containing the microsomes and D-NADPH): 616 μL of mixed solution 2 for the incubation system was added with 14 μL of the test sample working solution (with a concentration of 50 μM), and with 70 μL of R-NADPH working solution (10 mM). The resulted solution was well mixed, and the resulted solution was then duplicated. The time points of sampling were at 0 min, 5th min, 10th min, 20th min, 30th min and 60th min.
(§14) (5) Control group (containing the microsomes, and water instead of D-NADPH): 264 μL of mixed solution 2 for the incubation system was added with 6 μL of the test sample working solution (50 μM), and with 30 μL of water. The resulted solution was well mixed, and the resulted solution was then duplicated. The time points of sampling were at 0 min and 60th min.
(§15) (6) 50 μL of sample was taken from an incubating sample tube at each predetermined time point, added to a terminating sample tube (containing 300 μL of cold terminator), and vortexed; and the reaction was terminated.
(§16) (7) after 10 mins of vortexing, the solution was centrifuged for 5 mins (12,000 rpm).
(§17) (8) 100 μL of supernatant was taken and added with 100 μL of water, and the mixture solution was thoroughly vortexed; and the solution was then analyzed by LC-MS/MS.
(§18) Percentages of residual contents were calculated according to the following formula.
(In general: Liver microsomes are vesicles of endoplasmic reticulum, rich in cytochrome P450 enzymes.)

Series [6] in a line: Liver microsome metabolism stability, rat liver microsome. The class given is in vitro ADME, SD rat. Conditions: 0.5 mg protein/mL, test sample 1 μM, β-NADPH. On the procedure:
as §6, §7, §8, §9, §10, §11, §12, §13, §14, §15, §16, §17, §18

In general, EC50 refers to the concentration needed to bring the measured effect to its halfway point. By IC50 is commonly meant the concentration at which inhibition is half-maximal. As to `O=C(O)c1cc(F)c2nc(N3[C@@H]4CC[C@H]3C[C@@H](OCc3c(-c5ccccc5OC(F)(F)F)noc3C3CC3)C4)sc2c1` [Compound 1-1B, reference compound], the EC50 amounted to 0.75 nM in series [1], 0.26 nM in series [2] and 1.51 nM in series [4]. Besides, the IC50 in series [3] was determined as 0.1 nM.
Regarding `O=C(O)c1cc(F)c2nc(N3C[C@@H]4C[C@H]3C[C@H]4OCc3c(-c4ccccc4OC(F)(F)F)noc3C3CC3)sc2c1` [Compound 8, 2-((1S, 4S, 5R)-5-((5-cyclopropyl-3-(2-(trifluoromethoxy)phenyl)isoxazol-4-yl)methoxy)-2-azabicyclo[2.2.1]heptan-2-yl)-4-fluorobenzo[d]thiazole-6-formic acid], the “Residual content (%) after 60 minutes of incubation” value in series [5] is 96%; in series [6] it was 73%. For the same molecule, the EC50 worked out at 0.35 nM in series [1], 0.09 nM in series [2] and 0.89 nM in series [4]. The same molecule came in with a concentration for half-maximal inhibition (IC50) in series [3] of 0.02 nM.

(Values after patent US11352358B2, “FXR agonist” (XUANZHU BIOPHARMACEUTICAL CO., LTD., priority 2017, dated 2022).)
